What was measured:
Type in all cases: in vivo
[1] = test system: ducksalad (Heteranthera limosa); assay: Test B flooded paddy test, visual plant response rating 0-100; details: 250 g ai/ha, Flood, applied to paddy water, evaluated after 13 days
Outline: (§1)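 Greenhouse, 13 d. Seedlings at 2-leaf stage, pots flooded to 3 cm, compound delivered into floodwater, water level held constant. Evaluated visually relative to controls.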

[2] = test system: rice (Oryza sativa); assay: as above; details: 250 g ai/ha, Flood, applied to paddy water, evaluated after 13 days
Outline: as §1

[3] = test system: barnyardgrass (Echinochloa crusgalli); assay: as above; details: 250 g ai/ha, Flood, applied to paddy water, evaluated after 13 days
Outline: as §1

[4] = test system: sedge, umbrella (small-flower umbrella sedge, Cyperus difformis); assay: as above; details: 250 g ai/ha, Flood, applied to paddy water, evaluated after 13 days
Outline: as §1

[5] = test system: ryegrass, Italian (italian ryegrass, Lolium multiflorum); assay: Test A postemergence application, visual injury rating 0-100
Outline: (§2)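 Rating: visual, day 10, untreated plants as reference, 0 no effect to 100 full control. Plants were in loam-sand and were treated either preemergence via directed soil spray or postemergence at the one- to two-leaf stage.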

[6] = test system: corn (Zea mays); assay: as above
Outline: as §2

[7] = test system: oat, wild (wild oat, Avena fatua); assay: as above
Outline: as §2

[8] = test system: ragweed (common ragweed, Ambrosia artemisiifolia); assay: as above
Outline: as §2

[9] = test system: galium (catchweed bedstraw, Galium aparine); assay: as above
Outline: as §2

[10] = test system: kochia (Bassia scoparia); assay: as above
Outline: as §2

[11] = test system: horseweed (Erigeron canadensis); assay: as above
Outline: as §2

[12] = test system: blackgrass (Alopecurus myosuroides); assay: as above
Outline: as §2

[13] = test system: soybean (Glycine max); assay: as above
Outline: as §2

[14] = test system: green foxtail (Setaria viridis); assay: as above
Outline: as §2

[15] = test system: wheat (Triticum aestivum); assay: as above
Outline: as §2

[16] = test system: palmer (palmer amaranth, palmer pigweed, Amaranthus palmeri); assay: as above
Outline: as §2

[17] = test system: barnyardgrass (Echinochloa crus-galli); assay: as above
Outline: as §2

[18] = test system: ryegrass, Italian (italian ryegrass, Lolium multiflorum); assay: Test A preemergence soil spray, visual injury rating 0-100; details: 10 days
Outline: as §2

[19] = test system: corn (Zea mays); assay: as above; details: 10 days
Outline: as §2

[20] = test system: oat, wild (wild oat, Avena fatua); assay: as above; details: 10 days
Outline: as §2

[21] = test system: ragweed (common ragweed, Ambrosia artemisiifolia); assay: as above; details: 10 days
Outline: as §2

[22] = test system: kochia (Bassia scoparia); assay: as above; details: 62 g ai/ha, 10 days, 0 = no effect, 100 = complete control
Outline: as §2

[23] = test system: blackgrass (Alopecurus myosuroides); assay: as above; details: 10 days
Outline: as §2

[24] = test system: soybean (Glycine max); assay: as above; details: 10 days
Outline: as §2

[25] = test system: green foxtail (Setaria viridis); assay: as above; details: 10 days
Outline: as §2

[26] = test system: wheat (Triticum aestivum); assay: as above; details: 10 days
Outline: as §2

[27] = test system: palmer (palmer amaranth, palmer pigweed, Amaranthus palmeri); assay: as above; details: 10 days
Outline: as §2

[28] = test system: barnyardgrass (Echinochloa crus-galli); assay: as above; details: 10 days
Outline: as §2

[29] = 62 g ai/ha, postemergence, 10 days, 0 = no effect, 100 = complete control
[30] = Postemergence, 16 g ai/ha, greenhouse 10 days, 0 no effect, 100 complete control
[31] = 62 g ai/ha, 0 = no effect, 100 = complete control

## COC(=O)C1=CCC(NC(=O)C2(C)CN(c3cc(Cl)c(F)c(Cl)c3)C(=O)O2)C1 (stereo not drawn) [Compound 129]
[1]
  Plant response rating, Ducksalad (0 to 100 scale, 0 is no effect and 100 is complete control): 70
[2]
  Plant response rating, Rice (0 to 100 scale, 0 is no effect and 100 is complete control): 40
[3]
  Plant response rating, Barnyardgrass (0 to 100 scale, 0 is no effect and 100 is complete control): 50
[4]
  Plant response rating, Sedge, Umbrella (0 to 100 scale, 0 is no effect and 100 is complete control): 90
[5]; [29]
  Ryegrass, Italian plant response rating (0-100): 60
[5]; [30]
  Ryegrass, Italian plant response rating (0 to 100 scale): 30
[6]; [29]
  Corn plant response rating (0-100): 100
[6]; [30]
  Corn plant response rating (0 to 100 scale): 70
[7]; [29]
  Oat, Wild plant response rating (0-100): 20
[7]; [30]
  Oat, Wild plant response rating (0 to 100 scale): 10
[8]; [29]
  Ragweed plant response rating (0-100): 30
[8]; [30]
  Ragweed plant response rating (0 to 100 scale): 0
[9]; [29]
  Galium plant response rating (0-100): 80
[9]; [30]
  Galium plant response rating (0 to 100 scale): 70
[10]; [29]
  Kochia plant response rating (0-100): 80
[10]; [30]
  Kochia plant response rating (0 to 100 scale): 50
[11]; [29]
  Horseweed plant response rating (0-100): 60
[11]; [30]
  Horseweed plant response rating (0 to 100 scale): 0
[12]; [29]
  Blackgrass plant response rating (0-100): 40
[12]; [30]
  Blackgrass plant response rating (0 to 100 scale): 20
[13]; [29]
  Soybean plant response rating (0-100): 70
[13]; [30]
  Soybean plant response rating (0 to 100 scale): 20
[14]; [29]
  Foxtail, Green plant response rating (0-100): 90
[14]; [30]
  Foxtail, Green plant response rating (0 to 100 scale): 20
[15]; [29]
  Wheat plant response rating (0-100): 80
[15]; [30]
  Wheat plant response rating (0 to 100 scale): 10
[16]; [29]
  Pigweed, Palmer plant response rating (0-100): 70
[16]; [30]
  Pigweed, Palmer plant response rating (0 to 100 scale): 50
[17]; [29]
  Barnyardgrass plant response rating (0-100): 100
[17]; [30]
  Barnyardgrass plant response rating (0 to 100 scale): 80
[18]; 16 g ai/ha, 0 to 100 scale
  Ryegrass, Italian plant response rating: 0
[18]; [31]
  Ryegrass, Italian plant response rating (0-100): 40
[19]; 16 g ai/ha, 0 to 100 scale
  Corn plant response rating: 0
[19]; [31]
  Corn plant response rating (0-100): 30
[20]; 16 g ai/ha, 0 to 100 scale
  Oat, Wild plant response rating: 0
[20]; [31]
  Oat, Wild plant response rating (0-100): 0
[21]; 16 g ai/ha, 0 to 100 scale
  Ragweed plant response rating: 0
[21]; [31]
  Ragweed plant response rating (0-100): 0
[22]
  Kochia plant response rating (0-100): 0
[23]; 16 g ai/ha, 0 to 100 scale
  Blackgrass plant response rating: 0
[23]; [31]
  Blackgrass plant response rating (0-100): 0
[24]; 16 g ai/ha, 0 to 100 scale
  Soybean plant response rating: 0
[24]; [31]
  Soybean plant response rating (0-100): 0
[25]; 16 g ai/ha, 0 to 100 scale
  Foxtail, Green plant response rating: 0
[25]; [31]
  Foxtail, Green plant response rating (0-100): 0
[26]; 16 g ai/ha, 0 to 100 scale
  Wheat plant response rating: 0
[26]; [31]
  Wheat plant response rating (0-100): 20
[27]; 16 g ai/ha, 0 to 100 scale
  Pigweed, Palmer plant response rating: 0
[27]; [31]
  Pigweed, Palmer plant response rating (0-100): 20
[28]; 16 g ai/ha, 0 to 100 scale
  Barnyardgrass plant response rating: 0
[28]; [31]
  Barnyardgrass plant response rating (0-100): 30

From US20260285850A1, “SUBSTITUTED OXAZOLIDINONES AND IMIDAZOLINONES AS HERBICIDES” (FMC CORPORATION, priority 2023, published 2026)
